The values that follow come from ChEMBL document CHEMBL1201862, “PubChem BioAssay data set” (2004).

The target of test [1] is T1, Mannose-6-phosphate isomerase (Homo sapiens, UniProt P34949).
T1 sequence (P34949 whole entry): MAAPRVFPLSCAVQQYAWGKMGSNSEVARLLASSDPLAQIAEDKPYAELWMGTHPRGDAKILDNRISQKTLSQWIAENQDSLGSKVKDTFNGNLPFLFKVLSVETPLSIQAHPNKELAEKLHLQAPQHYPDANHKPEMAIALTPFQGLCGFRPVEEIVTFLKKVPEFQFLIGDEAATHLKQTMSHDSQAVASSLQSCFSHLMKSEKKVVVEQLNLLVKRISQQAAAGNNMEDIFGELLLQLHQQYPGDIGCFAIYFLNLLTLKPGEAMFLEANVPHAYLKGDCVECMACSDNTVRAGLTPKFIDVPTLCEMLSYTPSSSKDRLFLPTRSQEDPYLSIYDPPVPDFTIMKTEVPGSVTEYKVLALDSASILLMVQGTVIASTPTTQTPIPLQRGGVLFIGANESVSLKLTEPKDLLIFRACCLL
The test can be described thus: MPI enzyme activity inhibition – biochemical, fluorescence intensity, coupled assay, primary screen (AID 1209).

Test [2] has as its target T2, Leucine aminopeptidase (Plasmodium falciparum 3D7, UniProt Q8IL11).
T2 sequence (Q8IL11 whole entry): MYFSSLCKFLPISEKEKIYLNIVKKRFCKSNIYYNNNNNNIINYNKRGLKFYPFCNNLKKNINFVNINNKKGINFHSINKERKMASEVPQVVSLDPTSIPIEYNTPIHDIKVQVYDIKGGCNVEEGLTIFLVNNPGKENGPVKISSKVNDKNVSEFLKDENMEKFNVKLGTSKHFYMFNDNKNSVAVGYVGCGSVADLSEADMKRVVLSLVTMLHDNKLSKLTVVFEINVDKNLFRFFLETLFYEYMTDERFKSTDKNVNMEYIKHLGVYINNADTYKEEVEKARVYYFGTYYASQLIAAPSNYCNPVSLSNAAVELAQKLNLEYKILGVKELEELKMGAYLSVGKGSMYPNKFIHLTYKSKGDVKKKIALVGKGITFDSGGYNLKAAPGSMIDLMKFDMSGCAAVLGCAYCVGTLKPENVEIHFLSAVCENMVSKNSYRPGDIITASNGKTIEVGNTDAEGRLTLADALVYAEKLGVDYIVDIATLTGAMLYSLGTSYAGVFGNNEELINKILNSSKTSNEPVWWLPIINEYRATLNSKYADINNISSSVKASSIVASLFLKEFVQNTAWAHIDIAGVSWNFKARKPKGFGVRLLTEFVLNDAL
The test is described as follows: P. falciparum M17LAP inhibitors, primary screen, biochemical, fluorogenic H-Leu-NHMec substrate, 1536-well (AID 1619). It is filed as functional.

The target of test [3] is T3, Estrogen receptor (Homo sapiens, UniProt P03372).
T3 sequence (P03372 whole entry): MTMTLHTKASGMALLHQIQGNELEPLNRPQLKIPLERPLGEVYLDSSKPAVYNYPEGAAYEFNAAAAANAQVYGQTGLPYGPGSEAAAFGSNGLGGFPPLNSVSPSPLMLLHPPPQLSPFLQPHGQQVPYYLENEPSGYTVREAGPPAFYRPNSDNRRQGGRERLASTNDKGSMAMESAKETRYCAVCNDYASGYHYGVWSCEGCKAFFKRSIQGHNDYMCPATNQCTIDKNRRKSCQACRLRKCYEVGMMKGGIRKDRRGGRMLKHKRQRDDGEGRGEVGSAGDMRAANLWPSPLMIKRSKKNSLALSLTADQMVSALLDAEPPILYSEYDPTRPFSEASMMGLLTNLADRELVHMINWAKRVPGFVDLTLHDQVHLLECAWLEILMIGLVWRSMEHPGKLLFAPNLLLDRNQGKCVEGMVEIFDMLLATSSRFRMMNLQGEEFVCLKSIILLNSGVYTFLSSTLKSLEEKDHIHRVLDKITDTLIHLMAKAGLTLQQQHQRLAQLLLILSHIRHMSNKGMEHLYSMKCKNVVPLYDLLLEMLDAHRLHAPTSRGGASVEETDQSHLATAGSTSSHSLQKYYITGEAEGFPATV

Test [4] deals with T4, Estrogen receptor beta (Homo sapiens, UniProt Q92731).
T4 sequence (Q92731 whole entry): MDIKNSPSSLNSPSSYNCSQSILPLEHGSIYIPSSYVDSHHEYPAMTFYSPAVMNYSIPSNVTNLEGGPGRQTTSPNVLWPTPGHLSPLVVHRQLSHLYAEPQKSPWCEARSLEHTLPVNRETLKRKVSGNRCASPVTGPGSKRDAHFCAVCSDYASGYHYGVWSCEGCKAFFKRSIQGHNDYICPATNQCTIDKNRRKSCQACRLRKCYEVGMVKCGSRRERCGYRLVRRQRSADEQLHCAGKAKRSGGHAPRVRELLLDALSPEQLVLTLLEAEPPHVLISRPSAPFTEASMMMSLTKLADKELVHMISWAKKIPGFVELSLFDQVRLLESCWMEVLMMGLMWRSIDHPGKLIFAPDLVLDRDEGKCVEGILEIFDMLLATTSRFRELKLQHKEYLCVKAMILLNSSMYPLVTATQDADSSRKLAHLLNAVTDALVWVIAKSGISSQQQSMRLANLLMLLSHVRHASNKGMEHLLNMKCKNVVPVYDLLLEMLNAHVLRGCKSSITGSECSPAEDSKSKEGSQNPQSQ
Test [5] has as its target T4, Estrogen receptor beta. The test is described as follows: blockers of SRC-3 recruitment to ERβ – biochemical, ELISA, streptavidin-HRP readout, orthogonal assay, confirmation (AID 1060). Background: ELISA stands for enzyme-linked immunosorbent assay.
Test [6] is described as follows: viability of uninfected HEp-2 cells – cell-based, HTS, cytotoxicity control for RSV inhibitor project, dose response (AID 2410). It is filed as functional. The settings on record: human respiratory syncytial virus.
Test [7] has as its target Lysosomal acid glucosylceramidase (Homo sapiens, UniProt P04062). The test can be described thus: Dose response cell-based high throughput screening assay to identify enhancers of beta-glucosidase activity. [Related pubchem assays: 784 ]. It is filed as functional.
The target of test [8] is Acyl-homoserine lactone acylase PvdQ (Pseudomonas aeruginosa (strain LESB58), UniProt Q9I194). The test can be described thus: PvdQ acylase enzyme activity blockers – biochemical, fluorescence, plate reader and imaging, cherry-picks, dose response (AID 493231).
Acyl-homoserine lactone acylase PvdQ, sequence (Q9I194 24-193 limits assumed): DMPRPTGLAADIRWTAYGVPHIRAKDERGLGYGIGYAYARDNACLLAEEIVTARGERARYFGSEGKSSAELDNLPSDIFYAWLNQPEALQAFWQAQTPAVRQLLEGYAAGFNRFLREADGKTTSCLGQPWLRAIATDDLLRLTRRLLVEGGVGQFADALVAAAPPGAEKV
Acyl-homoserine lactone acylase PvdQ, sequence (Q9I194 217-762 limits assumed): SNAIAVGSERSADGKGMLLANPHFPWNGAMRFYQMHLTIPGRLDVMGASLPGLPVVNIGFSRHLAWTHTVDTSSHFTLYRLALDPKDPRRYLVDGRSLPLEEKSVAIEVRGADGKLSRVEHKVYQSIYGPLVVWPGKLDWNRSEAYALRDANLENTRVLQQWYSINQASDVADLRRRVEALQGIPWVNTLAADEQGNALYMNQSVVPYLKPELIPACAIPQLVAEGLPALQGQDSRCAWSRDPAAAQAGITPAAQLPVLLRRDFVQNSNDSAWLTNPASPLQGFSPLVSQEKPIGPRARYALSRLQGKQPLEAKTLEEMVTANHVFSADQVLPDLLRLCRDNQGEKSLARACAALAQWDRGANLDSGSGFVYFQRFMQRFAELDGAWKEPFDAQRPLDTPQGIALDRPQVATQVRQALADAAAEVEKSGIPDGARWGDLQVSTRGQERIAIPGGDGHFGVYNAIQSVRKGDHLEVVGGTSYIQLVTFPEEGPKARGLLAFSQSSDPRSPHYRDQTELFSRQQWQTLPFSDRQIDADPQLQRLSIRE
Test [9] can be described thus: viability of HCT116 lacking mutant beta-catenin – cell-based, human colon tumor, dose response (AID 1045).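 Further: HCT116 colon tumor cells with beta catenin knocked out; cells exposed to compound for 60 hours.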 It is filed as functional.
The nature of test [10]: A Cell Based Secondary Assay To Explore Cytotoxicity of Compounds that Sensitize Mycobacterium Tuberculosis to Beta-Lactam Antibiotics. It is filed as functional.
The nature of test [11]: viability of PTEN-deleted HCT116 cells – cell-based, HCT116 PTEN knockout, dose response (AID 1047).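 Further: HCT116 colon tumor cells with PTEN knocked out; cells exposed to compound for 60 hours before readout; potency for loss of cell viability measured by luminescence.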 It is filed as functional.
Test [12] is described as follows: cells.
Test [13] addresses Melanin-concentrating hormone receptor 1 (Homo sapiens, UniProt Q99705). The test is described as follows: Fluorescence-based counterscreen for antagonists of the G-protein coupled receptor 7 (GPR7): cell-based high throughput dose response assay to identify antagonists of the melanin-concentrating hormone receptor 1 (MCHR1). It is filed as functional. (In general: The purpose of a counterscreen is to sort out artefacts and off-target activity.)

Test [14] addresses T5, Neuropeptides B/W receptor type 1 (Homo sapiens, UniProt P48145).
T5 sequence (P48145 whole entry): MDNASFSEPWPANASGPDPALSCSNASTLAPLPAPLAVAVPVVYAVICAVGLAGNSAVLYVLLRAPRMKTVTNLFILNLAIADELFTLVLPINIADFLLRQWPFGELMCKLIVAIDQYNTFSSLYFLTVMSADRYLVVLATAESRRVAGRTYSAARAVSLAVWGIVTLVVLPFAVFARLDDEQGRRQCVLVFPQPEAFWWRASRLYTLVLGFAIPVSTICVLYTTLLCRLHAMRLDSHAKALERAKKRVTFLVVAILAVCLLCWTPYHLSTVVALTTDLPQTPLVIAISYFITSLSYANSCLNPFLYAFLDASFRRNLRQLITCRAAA
The test can be described thus: Fluorescence-based dose response cell-based high throughput screening assay to identify antagonists of the G-protein coupled receptor 7 (GPR7). [Related pubchem assays: 1952 (Screening assay (GPR7 antagonists).), 1880 (Summary AID.)]. It is filed as functional.

Test [15] is described as follows: Luminescence Cell-Based Dose Response HTS to Identify Inhibitors of 5'UTR Stem-Loop Driven Prion Protein mRNA Translation in H4 Neuroglioblastoma Cells. [Related pubchem assays: 1827 (Project Summary), 1813 (Primary HTS)]. It is filed as functional.
Test [16] has as its target Luciferin 4-monooxygenase (Photinus pyralis, UniProt P08659). The test can be described thus: Counter Screen for Luciferase-based Assay Positives. [Related pubchem assays: 620, 618, 411 ].
Test [17] can be described thus: alpha-synuclein stem-loop luciferase translation blockers – H4 neuroglioma cells, luminescence, confirmation (AID 1988). It is filed as functional, cell-based.
Test [18] relates to HT-1080. The test can be described thus: HT1080 cell viability loss – fluorescence readout (AID 620). It is filed as functional, cell-based. The settings on record: Homo sapiens.

Activity calls are given as the source filed them. Where only a bound is given, the exact number is not on record here.

Luciferin 4-monooxygenase, sequence (P08659 whole entry): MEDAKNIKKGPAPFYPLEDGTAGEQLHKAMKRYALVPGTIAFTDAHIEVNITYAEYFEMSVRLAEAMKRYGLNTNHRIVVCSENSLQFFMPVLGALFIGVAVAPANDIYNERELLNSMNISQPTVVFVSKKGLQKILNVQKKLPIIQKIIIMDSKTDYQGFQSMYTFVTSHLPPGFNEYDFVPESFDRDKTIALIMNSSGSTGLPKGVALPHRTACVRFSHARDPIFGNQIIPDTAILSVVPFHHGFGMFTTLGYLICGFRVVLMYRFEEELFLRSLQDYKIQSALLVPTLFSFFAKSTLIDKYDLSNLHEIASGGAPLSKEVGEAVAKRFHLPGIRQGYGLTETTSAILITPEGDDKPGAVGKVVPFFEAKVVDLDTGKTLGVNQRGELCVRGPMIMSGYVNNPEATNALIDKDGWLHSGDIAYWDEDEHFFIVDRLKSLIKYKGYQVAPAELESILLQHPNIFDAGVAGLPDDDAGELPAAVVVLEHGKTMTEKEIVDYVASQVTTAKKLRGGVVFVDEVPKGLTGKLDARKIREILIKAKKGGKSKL
Melanin-concentrating hormone receptor 1, sequence (Q99705 whole entry): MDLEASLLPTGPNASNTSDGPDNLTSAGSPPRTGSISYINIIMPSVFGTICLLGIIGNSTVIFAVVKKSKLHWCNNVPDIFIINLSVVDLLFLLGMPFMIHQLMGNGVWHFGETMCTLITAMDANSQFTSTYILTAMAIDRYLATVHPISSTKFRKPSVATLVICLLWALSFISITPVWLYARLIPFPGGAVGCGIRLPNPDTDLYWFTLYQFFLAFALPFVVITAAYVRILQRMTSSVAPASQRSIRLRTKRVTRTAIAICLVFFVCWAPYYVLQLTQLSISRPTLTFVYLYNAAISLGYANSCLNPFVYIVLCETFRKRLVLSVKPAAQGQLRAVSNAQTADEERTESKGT
Lysosomal acid glucosylceramidase, sequence (P04062 whole entry): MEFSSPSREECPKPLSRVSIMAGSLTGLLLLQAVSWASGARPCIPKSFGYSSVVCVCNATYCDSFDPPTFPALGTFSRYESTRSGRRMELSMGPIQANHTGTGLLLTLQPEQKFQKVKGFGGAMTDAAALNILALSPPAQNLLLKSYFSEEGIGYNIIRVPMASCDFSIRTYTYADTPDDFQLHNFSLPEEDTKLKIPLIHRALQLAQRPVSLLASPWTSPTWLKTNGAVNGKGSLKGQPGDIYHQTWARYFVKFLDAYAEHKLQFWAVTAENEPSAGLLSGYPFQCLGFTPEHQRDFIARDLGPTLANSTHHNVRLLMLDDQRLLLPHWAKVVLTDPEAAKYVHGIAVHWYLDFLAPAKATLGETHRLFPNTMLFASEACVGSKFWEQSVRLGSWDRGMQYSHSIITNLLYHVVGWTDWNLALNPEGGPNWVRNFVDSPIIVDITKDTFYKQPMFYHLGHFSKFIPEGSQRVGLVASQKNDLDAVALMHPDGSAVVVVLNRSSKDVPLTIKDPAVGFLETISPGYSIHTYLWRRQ

The term IC50 denotes the concentration that gives 50% inhibition. Take `CC(=O)NNC(=S)NC(=O)c1cccc([N+](=O)[O-])c1`: the IC50 in test [1] is > 50 µM (not active); in test [2], 45.8 µM (active).

For the molecule `CCOc1ccc(NC2=NC(=O)S/C2=C\c2ccc(OC)cc2)cc1`, the IC50 in [3] is 18.8 µM (active); in [4], > 50 µM (not active); in [5], 99.9 µM (not active).

The CC50 is the concentration giving 50% cytotoxicity. Usually EC50 stands for the concentration at which the effect is half-maximal. For `O=c1cccc2n1CC1CC2CN(Cc2cccc(Cl)c2Cl)C1` (stereo unspecified), the CC50 in [6] is 23.1 µM (active). Besides, in test [7], the 50% effective concentration (EC50) is > 50 µM (not active).

In general, AC50 refers to the concentration giving half of the maximal activity seen. With `CSc1nnc(-c2ccc([N+](=O)[O-])cc2)o1`, the AC50 in test [8] was 6.96 µM (active).

Regarding `COc1ccc(OC)c(C2CC(c3c(O)nc4ccc(Cl)cc4c3-c3ccccc3)=NN2S(C)(=O)=O)c1` (stereo unspecified), the EC50 is 11.3 µM (active) in test [9] and 9.08 µM (active) in [11]. The cytotoxic concentration (CC50) in test [10] is > 40 µM (active).

For the molecule `Cc1ccc(/C=N\NC(=O)C2CN(S(=O)(=O)c3ccccc3)CCN2S(=O)(=O)c2ccccc2)cc1` (stereo unspecified), in test [12], the IC50 is 13.6 µM (active).

Turning to `CCOC(=O)c1[nH]c2ccc(OC)cc2c1NS(=O)(=O)c1ccc(OC)cc1OC`, the IC50 in [13] and in test [14] was > 43.8 µM (not active) throughout.

Take `Cc1csc(NC(=O)C2COc3ccccc3O2)n1` (stereo unspecified): the EC50 in test [15] is 10.7 µM (inconclusive); in test [16], 560 nM (active); in [17], 7.32 µM (active); in [18], > 50 µM (not active).

Turning to `N#CC(c1ccc(Cl)cc1)c1ncc(C(F)(F)F)cc1Cl` (stereo unspecified), the AC50 in test [8] was 0.939 µM (active).

As to `Cc1cnc(NC(=O)C2COc3ccccc3O2)s1` (stereo unspecified), the EC50 is 1950 nM (active) in [16] and > 50 µM (not active) in [18].
